# In ChEMBL document CHEMBL1137190, “Synthesis and KCNQ2 opener activity of N-(1-benzo[1,3]dioxol-5-yl-ethyl, N-[1-(2,3-dihydro-benzofuran-5-yl)-ethyl, and N-[1-(2,3-dihydro-1H-indol-5-yl)-ethyl acrylamides” (Bioorg Med Chem Lett, 2004):
# Test system: HEK293
# Assay: Effective concentration against whole-cell patch clamp from […] HEK293 cells
# Format: functional, cell-based, Homo sapiens
structure (smiles),measurement,setting,value
C[C@H](NC(=O)/C=C/c1c(F)cccc1F)c1ccc2c(c1)CCO2,EC50,"Homo sapiens, HEK293",330 nM
C[C@H](NC(=O)/C=C/c1ccccc1F)c1ccc2c(c1)N(CC1CC1)CCO2,EC50,"Homo sapiens, HEK293",60 nM
C[C@H](NC(=O)/C=C/c1ccccc1Cl)c1ccc2c(c1)OCO2,EC50,hek293,20 nM
CCOC(=O)Nc1ccc(NCc2ccc(F)cc2)cc1N [EZOGABINE],EC50,"Homo sapiens, HEK293",1300 nM
C[C@H](NC(=O)/C=C/c1ccccc1F)c1ccc2c(c1)CCN2,EC50,"Homo sapiens, HEK293",430 nM
C[C@H](NC(=O)/C=C/c1ccccc1)c1cccc(N2CCOCC2)c1,EC50,"Homo sapiens, HEK293",3200 nM
C[C@H](NC(=O)/C=C/c1ccccc1Cl)c1ccc2c(c1)OCO2 (racemic),EC50,hek293,70 nM
